Some targets named below: D(3) dopamine receptor (Homo sapiens, UniProt P35462); Histamine H3 receptor (Homo sapiens, UniProt Q9Y5N1); Mu-type opioid receptor (Homo sapiens, UniProt P35372).
Test [1] addresses T1, 5-hydroxytryptamine receptor 3A (Homo sapiens, UniProt P46098).
T1 sequence (P46098 whole entry): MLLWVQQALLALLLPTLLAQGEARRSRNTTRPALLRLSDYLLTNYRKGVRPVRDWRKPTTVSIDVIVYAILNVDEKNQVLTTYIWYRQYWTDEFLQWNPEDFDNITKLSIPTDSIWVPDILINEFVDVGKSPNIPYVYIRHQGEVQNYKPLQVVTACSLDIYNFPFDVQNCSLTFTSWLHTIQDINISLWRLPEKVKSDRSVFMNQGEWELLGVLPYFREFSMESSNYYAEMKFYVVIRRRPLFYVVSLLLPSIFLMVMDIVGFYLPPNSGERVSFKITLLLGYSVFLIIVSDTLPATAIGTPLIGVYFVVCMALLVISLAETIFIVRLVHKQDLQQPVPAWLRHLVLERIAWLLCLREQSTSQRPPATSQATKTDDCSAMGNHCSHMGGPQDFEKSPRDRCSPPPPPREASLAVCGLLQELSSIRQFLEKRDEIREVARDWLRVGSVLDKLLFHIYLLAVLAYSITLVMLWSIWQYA
The test is classed as functional.

Test [2] has as its target 3',5'-cyclic-AMP phosphodiesterase 4D (Homo sapiens, UniProt Q08499). Format: functional.
A further test deals with T2, Adenosine receptor A3 (Homo sapiens, UniProt P0DMS8).
T2 sequence (P0DMS8 whole entry): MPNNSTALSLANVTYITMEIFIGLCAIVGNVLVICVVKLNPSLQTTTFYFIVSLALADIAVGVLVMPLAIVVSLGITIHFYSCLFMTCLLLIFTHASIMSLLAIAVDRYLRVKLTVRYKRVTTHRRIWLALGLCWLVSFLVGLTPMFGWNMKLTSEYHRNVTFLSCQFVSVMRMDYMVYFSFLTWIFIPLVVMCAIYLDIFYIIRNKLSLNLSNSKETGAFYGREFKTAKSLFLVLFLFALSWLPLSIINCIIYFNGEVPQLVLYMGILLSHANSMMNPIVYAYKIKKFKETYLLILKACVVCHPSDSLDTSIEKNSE

Test [3] concerns the target T3, Prostaglandin G/H synthase 1 (Rattus norvegicus, UniProt Q63921).
T3 sequence (Q63921 whole entry): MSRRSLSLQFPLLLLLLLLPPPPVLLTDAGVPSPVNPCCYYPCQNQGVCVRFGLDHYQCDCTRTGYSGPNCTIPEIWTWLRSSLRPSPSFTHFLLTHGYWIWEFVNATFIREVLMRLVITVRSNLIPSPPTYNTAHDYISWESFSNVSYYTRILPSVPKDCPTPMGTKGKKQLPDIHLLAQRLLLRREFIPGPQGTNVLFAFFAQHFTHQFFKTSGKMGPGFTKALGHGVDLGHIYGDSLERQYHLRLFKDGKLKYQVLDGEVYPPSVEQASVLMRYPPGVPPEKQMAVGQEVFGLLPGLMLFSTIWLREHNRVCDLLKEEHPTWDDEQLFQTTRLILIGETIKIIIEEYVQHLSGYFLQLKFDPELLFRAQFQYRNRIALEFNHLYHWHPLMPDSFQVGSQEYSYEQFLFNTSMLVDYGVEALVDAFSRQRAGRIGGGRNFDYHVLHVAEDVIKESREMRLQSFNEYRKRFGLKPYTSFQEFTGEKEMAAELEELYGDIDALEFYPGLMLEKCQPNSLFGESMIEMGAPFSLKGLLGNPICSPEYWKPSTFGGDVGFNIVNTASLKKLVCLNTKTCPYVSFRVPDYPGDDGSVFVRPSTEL
The test is classed as functional.

In test [4] the target is T4, 5-hydroxytryptamine receptor 2B (Homo sapiens, UniProt P41595). The test is classed as functional, cell-based.
The target of the next test is T5, Adenosine receptor A1 (Homo sapiens, UniProt P30542).
T5 sequence (P30542 whole entry): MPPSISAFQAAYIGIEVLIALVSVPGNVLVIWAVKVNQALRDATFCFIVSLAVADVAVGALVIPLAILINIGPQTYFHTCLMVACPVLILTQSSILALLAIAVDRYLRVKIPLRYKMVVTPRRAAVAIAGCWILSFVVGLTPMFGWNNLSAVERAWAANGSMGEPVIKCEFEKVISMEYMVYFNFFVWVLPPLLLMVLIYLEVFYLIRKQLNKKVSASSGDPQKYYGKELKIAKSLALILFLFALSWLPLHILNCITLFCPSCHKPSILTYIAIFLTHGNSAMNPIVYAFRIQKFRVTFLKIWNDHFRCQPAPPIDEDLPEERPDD

The target of test [5] is 5-hydroxytryptamine receptor 2A (Homo sapiens, UniProt P28223). Format: functional, cell-based.
The target of test [6] is T4, 5-hydroxytryptamine receptor 2B. Format: functional, cell-based. This is another data set of the same source.
The target in test [7] is Voltage-dependent L-type calcium channel subunit alpha-1C (Rattus norvegicus, UniProt P22002). Format: functional.
A further test deals with Cannabinoid receptor 1 (Homo sapiens, UniProt P21554). Format: functional, cell-based.
Note: assay procedure not described here.

Chain of Voltage-dependent L-type calcium channel subunit alpha-1C (P22002 whole entry): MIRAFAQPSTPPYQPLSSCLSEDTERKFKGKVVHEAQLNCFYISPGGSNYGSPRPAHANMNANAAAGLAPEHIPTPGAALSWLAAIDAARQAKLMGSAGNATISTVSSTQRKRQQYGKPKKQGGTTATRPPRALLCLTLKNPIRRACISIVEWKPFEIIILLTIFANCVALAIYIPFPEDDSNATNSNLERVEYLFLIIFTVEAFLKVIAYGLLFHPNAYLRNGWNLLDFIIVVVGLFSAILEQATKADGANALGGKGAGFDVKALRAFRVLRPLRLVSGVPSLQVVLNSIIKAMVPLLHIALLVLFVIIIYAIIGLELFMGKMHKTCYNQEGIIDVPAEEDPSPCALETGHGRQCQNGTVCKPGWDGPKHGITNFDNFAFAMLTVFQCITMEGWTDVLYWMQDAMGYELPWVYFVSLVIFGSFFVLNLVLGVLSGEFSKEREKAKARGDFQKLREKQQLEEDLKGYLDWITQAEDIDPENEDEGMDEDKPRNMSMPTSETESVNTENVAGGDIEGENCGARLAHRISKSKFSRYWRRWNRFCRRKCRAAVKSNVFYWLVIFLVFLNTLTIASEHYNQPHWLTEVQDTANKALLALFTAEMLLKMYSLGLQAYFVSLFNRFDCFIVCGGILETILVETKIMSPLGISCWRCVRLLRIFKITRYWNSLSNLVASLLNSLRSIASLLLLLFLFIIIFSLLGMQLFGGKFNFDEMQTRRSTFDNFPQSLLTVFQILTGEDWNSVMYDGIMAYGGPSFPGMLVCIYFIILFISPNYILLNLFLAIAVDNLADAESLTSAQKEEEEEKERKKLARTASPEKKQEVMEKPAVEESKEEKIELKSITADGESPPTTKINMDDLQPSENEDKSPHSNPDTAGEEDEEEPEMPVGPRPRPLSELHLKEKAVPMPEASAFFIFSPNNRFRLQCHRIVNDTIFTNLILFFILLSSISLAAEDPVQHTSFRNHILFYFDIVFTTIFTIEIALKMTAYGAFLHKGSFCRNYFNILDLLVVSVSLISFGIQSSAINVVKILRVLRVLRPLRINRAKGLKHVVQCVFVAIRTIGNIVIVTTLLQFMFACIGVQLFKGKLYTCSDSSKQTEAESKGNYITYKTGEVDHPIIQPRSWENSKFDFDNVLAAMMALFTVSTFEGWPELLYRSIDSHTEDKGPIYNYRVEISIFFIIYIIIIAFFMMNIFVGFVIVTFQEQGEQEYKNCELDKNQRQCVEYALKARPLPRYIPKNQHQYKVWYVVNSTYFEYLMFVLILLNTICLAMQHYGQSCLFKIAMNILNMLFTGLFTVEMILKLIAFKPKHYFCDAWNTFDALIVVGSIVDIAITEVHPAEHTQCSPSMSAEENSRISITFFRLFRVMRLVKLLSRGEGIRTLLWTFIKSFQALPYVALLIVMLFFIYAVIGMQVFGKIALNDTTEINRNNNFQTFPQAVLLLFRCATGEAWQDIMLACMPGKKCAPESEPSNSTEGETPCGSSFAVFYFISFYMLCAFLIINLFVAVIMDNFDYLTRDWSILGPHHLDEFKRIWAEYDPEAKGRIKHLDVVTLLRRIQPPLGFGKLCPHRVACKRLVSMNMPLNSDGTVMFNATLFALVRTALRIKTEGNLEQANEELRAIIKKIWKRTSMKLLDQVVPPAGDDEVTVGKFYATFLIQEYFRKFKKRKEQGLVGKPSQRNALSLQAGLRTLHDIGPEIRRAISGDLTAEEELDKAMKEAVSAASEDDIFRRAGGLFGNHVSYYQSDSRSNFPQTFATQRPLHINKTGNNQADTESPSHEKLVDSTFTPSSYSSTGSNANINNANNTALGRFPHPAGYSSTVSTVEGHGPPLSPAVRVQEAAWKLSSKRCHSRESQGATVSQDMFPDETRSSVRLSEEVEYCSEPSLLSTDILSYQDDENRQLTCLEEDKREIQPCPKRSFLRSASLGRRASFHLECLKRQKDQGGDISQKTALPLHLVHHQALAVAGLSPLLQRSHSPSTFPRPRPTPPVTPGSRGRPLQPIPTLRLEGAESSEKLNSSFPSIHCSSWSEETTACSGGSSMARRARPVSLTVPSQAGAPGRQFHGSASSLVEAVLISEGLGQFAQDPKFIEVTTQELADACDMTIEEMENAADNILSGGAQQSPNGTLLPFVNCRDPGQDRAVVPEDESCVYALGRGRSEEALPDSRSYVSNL
T4 sequence (P41595 whole entry): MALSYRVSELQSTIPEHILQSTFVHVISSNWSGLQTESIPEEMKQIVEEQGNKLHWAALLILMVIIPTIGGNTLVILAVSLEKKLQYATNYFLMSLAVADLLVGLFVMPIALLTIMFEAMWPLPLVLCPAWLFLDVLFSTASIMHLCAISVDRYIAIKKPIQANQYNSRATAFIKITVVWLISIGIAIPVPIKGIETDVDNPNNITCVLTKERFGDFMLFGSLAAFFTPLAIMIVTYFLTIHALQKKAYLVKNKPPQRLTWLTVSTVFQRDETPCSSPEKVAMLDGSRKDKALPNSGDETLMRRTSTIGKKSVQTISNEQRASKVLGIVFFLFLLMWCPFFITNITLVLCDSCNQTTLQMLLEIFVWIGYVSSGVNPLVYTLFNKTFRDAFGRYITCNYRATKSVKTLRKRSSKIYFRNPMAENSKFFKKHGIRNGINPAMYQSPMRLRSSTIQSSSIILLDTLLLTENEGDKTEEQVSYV
Chain of 5-hydroxytryptamine receptor 2A (P28223 whole entry): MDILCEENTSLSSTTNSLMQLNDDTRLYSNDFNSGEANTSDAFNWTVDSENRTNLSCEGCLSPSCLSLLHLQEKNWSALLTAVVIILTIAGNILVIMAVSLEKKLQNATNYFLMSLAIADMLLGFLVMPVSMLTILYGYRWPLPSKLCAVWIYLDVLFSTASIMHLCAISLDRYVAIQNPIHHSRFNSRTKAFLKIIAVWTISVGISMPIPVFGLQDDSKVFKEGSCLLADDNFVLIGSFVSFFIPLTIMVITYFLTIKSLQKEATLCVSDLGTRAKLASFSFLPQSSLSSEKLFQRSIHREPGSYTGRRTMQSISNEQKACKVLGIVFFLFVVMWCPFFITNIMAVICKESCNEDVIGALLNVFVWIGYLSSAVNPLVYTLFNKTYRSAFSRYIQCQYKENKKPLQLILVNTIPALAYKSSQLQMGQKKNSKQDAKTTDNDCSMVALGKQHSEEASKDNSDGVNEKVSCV
Chain of D(3) dopamine receptor (P35462 whole entry): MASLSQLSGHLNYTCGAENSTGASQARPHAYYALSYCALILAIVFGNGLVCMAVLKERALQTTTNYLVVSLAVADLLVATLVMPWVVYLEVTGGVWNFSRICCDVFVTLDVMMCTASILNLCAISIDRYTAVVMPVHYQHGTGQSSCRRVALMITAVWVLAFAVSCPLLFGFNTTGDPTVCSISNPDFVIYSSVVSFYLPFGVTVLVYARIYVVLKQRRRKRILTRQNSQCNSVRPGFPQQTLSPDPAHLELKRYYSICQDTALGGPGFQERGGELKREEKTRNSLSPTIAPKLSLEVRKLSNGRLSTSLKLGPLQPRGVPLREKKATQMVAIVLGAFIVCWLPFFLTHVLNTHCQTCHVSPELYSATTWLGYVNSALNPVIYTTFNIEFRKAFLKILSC
Chain of 3',5'-cyclic-AMP phosphodiesterase 4D (Q08499 whole entry): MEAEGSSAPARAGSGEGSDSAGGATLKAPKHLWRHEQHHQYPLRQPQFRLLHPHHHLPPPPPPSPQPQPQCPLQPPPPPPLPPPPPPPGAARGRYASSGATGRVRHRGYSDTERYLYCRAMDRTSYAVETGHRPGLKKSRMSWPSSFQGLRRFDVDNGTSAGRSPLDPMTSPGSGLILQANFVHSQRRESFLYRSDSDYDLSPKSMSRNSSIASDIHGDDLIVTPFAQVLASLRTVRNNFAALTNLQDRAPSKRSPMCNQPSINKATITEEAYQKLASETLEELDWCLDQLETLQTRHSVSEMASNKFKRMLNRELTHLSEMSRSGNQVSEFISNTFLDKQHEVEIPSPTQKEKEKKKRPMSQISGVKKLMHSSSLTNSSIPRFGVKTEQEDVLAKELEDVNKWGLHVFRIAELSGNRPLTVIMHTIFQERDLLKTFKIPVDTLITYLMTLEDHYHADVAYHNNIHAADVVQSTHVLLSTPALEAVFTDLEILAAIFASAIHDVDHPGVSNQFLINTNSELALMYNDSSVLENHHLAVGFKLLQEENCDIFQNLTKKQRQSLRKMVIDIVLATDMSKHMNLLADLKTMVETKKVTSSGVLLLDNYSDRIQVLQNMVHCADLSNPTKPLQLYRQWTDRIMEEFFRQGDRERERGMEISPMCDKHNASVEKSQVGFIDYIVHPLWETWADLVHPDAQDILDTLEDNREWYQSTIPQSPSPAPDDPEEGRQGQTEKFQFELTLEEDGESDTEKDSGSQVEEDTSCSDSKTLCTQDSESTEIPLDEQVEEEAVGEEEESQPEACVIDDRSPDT
Chain of Histamine H3 receptor (Q9Y5N1 whole entry): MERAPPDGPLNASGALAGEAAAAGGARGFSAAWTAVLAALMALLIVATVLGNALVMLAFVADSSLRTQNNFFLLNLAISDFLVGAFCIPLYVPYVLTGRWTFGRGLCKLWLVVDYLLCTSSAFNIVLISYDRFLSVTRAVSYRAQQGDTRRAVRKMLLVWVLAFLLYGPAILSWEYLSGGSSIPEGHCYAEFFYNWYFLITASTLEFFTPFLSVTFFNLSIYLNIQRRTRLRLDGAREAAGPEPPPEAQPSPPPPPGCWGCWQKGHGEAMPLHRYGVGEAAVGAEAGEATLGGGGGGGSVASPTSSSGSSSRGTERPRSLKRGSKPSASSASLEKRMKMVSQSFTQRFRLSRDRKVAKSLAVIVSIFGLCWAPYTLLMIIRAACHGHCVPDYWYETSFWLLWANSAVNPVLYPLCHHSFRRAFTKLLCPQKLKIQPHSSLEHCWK

Broadly, the AC50 is the midpoint of the concentration-response curve, whichever way the signal moves. In the case of `COC(=O)N[C@H](C(=O)N1CCC[C@H]1c1nc(-c2ccc(-c3ccc(-c4c[nH]c([C@@H]5CCCN5C(=O)[C@@H](NC(=O)OC)C(C)C)n4)cc3)cc2)c[nH]1)C(C)C`, the AC50 (in [1]; in test [2]; on D(3) dopamine receptor; on Adenosine receptor A3; in [3]; in test [4]) was greater than 30 µM throughout. The AC50 (on Histamine H3 receptor; on Adenosine receptor A1; in test [5]; in test [6]; in [7]) was greater than 30 µM throughout.
`CC(=O)c1ccc2c(c1)N(CCCN1CCN(CCO)CC1)c1ccccc1S2` [ACETOPHENAZINE]: the concentration at half-maximal activity (AC50) in [1] was greater than 30 µM; in test [2], greater than 30 µM; at D(3) dopamine receptor, 0.0044 µM; at Adenosine receptor A3, greater than 30 µM; in [3], greater than 30 µM; in test [4], greater than 30 µM. The AC50 on Histamine H3 receptor was 21 µM; on Adenosine receptor A1, greater than 30 µM; in test [5] it was 0.87 µM; in test [6] it was 4.49 µM; on Mu-type opioid receptor, greater than 30 µM; at Cannabinoid receptor 1, greater than 30 µM.
On to `CN1CCCC(n2nc(Cc3ccc(Cl)cc3)c3ccccc3c2=O)CC1` (stereo not drawn) [AZELASTINE], for which the half-maximal activity concentration (AC50) was 2.4 µM in test [1]; greater than 30 µM in test [2]; 6.5 µM at D(3) dopamine receptor; greater than 30 µM on Adenosine receptor A3; greater than 30 µM in test [3]; 16 µM on Histamine H3 receptor. Also, the half-maximal activity concentration (AC50) was greater than 30 µM on Adenosine receptor A1, 4.6 µM in test [5], 23 µM at Mu-type opioid receptor and greater than 30 µM at Cannabinoid receptor 1.
In the case of `COc1cc(Nc2c(C#N)cnc3cc(OCCCN4CCN(C)CC4)c(OC)cc23)c(Cl)cc1Cl` [BOSUTINIB], the AC50 in test [1] is greater than 10 µM; in [2], greater than 30 µM; on D(3) dopamine receptor, 5.6 µM; on Adenosine receptor A3, 10.3 µM; in test [3], greater than 30 µM; on Adenosine receptor A1, greater than 30 µM. Also, in [7], the AC50 is greater than 10 µM.
As to `N[C@@H](C(=O)N[C@@H]1C(=O)N2C(C(=O)O)=C(Cl)CS[C@H]12)c1ccccc1` [CEFACLOR ANHYDROUS], the AC50 was greater than 30 µM in test [1]; greater than 30 µM in test [2]; greater than 30 µM at D(3) dopamine receptor; 24 µM on Adenosine receptor A3; greater than 30 µM in [3]; greater than 30 µM in test [4]. Besides, the AC50 (at Histamine H3 receptor; at Adenosine receptor A1; in test [5]; in test [6]; on Cannabinoid receptor 1) was greater than 30 µM throughout.
As to `CC(=O)OCC(=O)[C@@]1(O)CC[C@H]2[C@@H]3CCC4=CC(=O)CC[C@]4(C)[C@H]3C(=O)C[C@@]21C` [CORTISONE ACETATE], the AC50 (in test [1]; in test [2]; in test [4]; in test [6]; at Cannabinoid receptor 1) was greater than 30 µM in each case.
As for `COc1ccc2c(c1)C(=O)N(CCc1ccc(S(=O)(=O)NC(=O)NC3CCCCC3)cc1)C(=O)C2(C)C` [GLIQUIDONE], the AC50 in test [1] was greater than 30 µM; in [2], 1.4 µM; at D(3) dopamine receptor, greater than 30 µM; on Adenosine receptor A3, greater than 30 µM; in test [3], greater than 30 µM; in [4], greater than 30 µM. Besides, the AC50 on Histamine H3 receptor is greater than 30 µM; on Adenosine receptor A1, greater than 30 µM; in [5], 13 µM; in test [6], greater than 30 µM; in test [7], greater than 30 µM.
Regarding `CC(C)Cc1ccc(CC(=O)O)cc1` [IBUFENAC], the AC50 (in [1]; in test [2]; at D(3) dopamine receptor; at Adenosine receptor A3; in test [3]; in [4]) was greater than 30 µM each time. Further, the AC50 (on Histamine H3 receptor; at Adenosine receptor A1; in test [5]; in [6]; on Mu-type opioid receptor; on Cannabinoid receptor 1) was greater than 30 µM in each case.
Turning to `CC(C)NNC(=O)c1ccncc1` [IPRONIAZID], the AC50 in test [1] is greater than 30 µM; in test [2], greater than 30 µM; on D(3) dopamine receptor, greater than 30 µM; at Adenosine receptor A3 it was greater than 30 µM; in test [3], 0.45 µM; in [4], greater than 30 µM. Further, the AC50 (on Histamine H3 receptor; on Adenosine receptor A1; in [6]; on Mu-type opioid receptor; on Cannabinoid receptor 1) was greater than 30 µM in each case.
Turning to `Cc1cccc(C)c1OCC(C)N` (stereo not drawn) [MEXILETINE], the AC50 is greater than 30 µM in [2]; greater than 30 µM on Adenosine receptor A3; greater than 10 µM in test [3]; greater than 30 µM in [4]; greater than 30 µM on Histamine H3 receptor; greater than 30 µM at Adenosine receptor A1. The AC50 in test [6] was 8.5 µM; on Cannabinoid receptor 1, greater than 30 µM.
With `NC(=O)c1ncn([C@@H]2O[C@H](CO)[C@@H](O)[C@H]2O)c1O` [MIZORIBINE], the AC50 (in [1]; in test [2]; on D(3) dopamine receptor; on Adenosine receptor A3; in [3]; in test [4]) was greater than 30 µM throughout. In addition, the AC50 (at Histamine H3 receptor; on Adenosine receptor A1; in test [5]; in [6]; at Cannabinoid receptor 1) was greater than 30 µM in each case.
Regarding `CCCS(=O)(=O)Nc1ccc(F)c(C(=O)c2c[nH]c3ncc(-c4ccc(Cl)cc4)cc23)c1F` [VEMURAFENIB], the AC50 was greater than 30 µM in test [1]; greater than 30 µM in [2]; greater than 30 µM at D(3) dopamine receptor; 18 µM at Adenosine receptor A3; greater than 30 µM in test [3]; greater than 30 µM in test [4]. The AC50 (at Histamine H3 receptor; at Adenosine receptor A1; in [5]; in test [6]; on Cannabinoid receptor 1; in test [7]) was greater than 30 µM each time.
In the case of `OCc1cc([C@@H](O)CNCCCCCCOCCOCc2c(Cl)cccc2Cl)ccc1O` [VILANTEROL], the AC50 in [1] was greater than 30 µM; in test [2], 18 µM; on D(3) dopamine receptor, greater than 30 µM; on Adenosine receptor A3, 29 µM; in test [3], greater than 30 µM; in test [4] it was greater than 30 µM. Moreover, the AC50 on Histamine H3 receptor is greater than 30 µM; on Adenosine receptor A1 it was greater than 30 µM; in test [5], 23 µM; in [6] it was greater than 30 µM; at Mu-type opioid receptor, greater than 30 µM; on Cannabinoid receptor 1, greater than 30 µM.

The record behind these values is ChEMBL document CHEMBL5291721, “A preclinical secondary pharmacology resource illuminates target-adverse drug reaction associations of marketed drugs” (Nat Commun, 2023).
